According to patent publication US7098372B1, “Pharmaceutical compositions and methods of using secreted frizzled related protein” (Wyeth, priority 1999, dated 2006):

Test system: hOB-03-C5, hOB-03-CE6 and hOB-01-C1 cells
Test: hOB cell viability in serum-free medium, Coulter cell counter
Type: cell-based, human
Conditions: 39° C.
Description: For these experiments, the cells were treated with either control or PGE2 (panels A & B) or control and TGF-β1 (panel C) in serum-free medium at 39° C. for 3 or 6 days. The results are presented as the % relative to the day 0 control (i.e., […] cells per well of a 6 well plate). The results of this experiment indicate that hOB cell viability declines over time in serum-free medium. In addition, for the hOB-03-C5 and hOB-03-CE6 cells, this rate of decline is accelerated by treatment with PGE2. This enhanced rate of cell death correlates with the upregulation of hOB SFRP mRNA levels in these cells following PGE2 treatment. […]
The next day, one set of plates were rinsed with PBS, trypsinized, and baseline cell number (and mean cell volume) was determined with a Coulter Multisizer as previously described in Bodine et al. 1996 J. Bone Miner. […] The other set of plates was placed at the non-permissive temperature of 39° C., and cell number was determined 6 days later (the medium was changed on day 3). […]
The hypothesis that up-regulation of SFRP-1/FRP-1/SARP-2 gene expression accelerates hOB cell death, while down-regulation of SFRP-1/FRP-1/SARP-2 gene expression suppresses cell death, was next examined. […] Finally, treatment of the hOB-03-C5 cells with PGE2 increased annexin V (a specific marker for apoptosis) binding to the cell as measured by flow cytometry (FIG. 11).

Row | Compound | fewer cells remaining alive versus control (hOB-03-C5 and hOB-03-CE6 cells, 100 nM, 6 days) | increase in cell viability (hOB-01-C1 cells, 0.01–1.0 nM, dose-dependent)
1 | CCCCC[C@H](O)/C=C/[C@H]1[C@H](O)CC(=O)[C@@H]1C/C=C\CCCC(=O)O [PGE2, prostaglandin E2] | over 40% | 
2 | human transforming growth factor-β1 [TGF-β1] |  | about 2 fold
